# Reference: patent publication US20100278751A1, “RADIOLABELED 2-AMINO-4-ALKYL-6-(HALOALKYL)PYRIDINE COMPOUNDS AND THEIR USE IN DIAGNOSTIC IMAGING” (WASHINGTON UNIVERSITY, priority 2009, published 2010)
# Read-outs that look alike come from different tables or passages of the source.
# Assays:
# [1] = molecular target: T1, iNOS (Mus musculus, UniProt P29477); test: Blocking studies of tracer uptake in LPS-treated mice; assay type: in vivo
# T1 construct: from tissue
# Method: This example describes blocking studies. […] P., et al., J. Biol. Chem. 272: 4959-4963, 1997). […] At 1 h post injection, % ID in lung was determined.
# [2] = molecular target: T2, iNOS (Homo sapiens, UniProt P35228); test: iNOS activity, nitric oxide synthase screening kit (IC50); assay type: biochemical
# T2 sequence (P35228 whole entry): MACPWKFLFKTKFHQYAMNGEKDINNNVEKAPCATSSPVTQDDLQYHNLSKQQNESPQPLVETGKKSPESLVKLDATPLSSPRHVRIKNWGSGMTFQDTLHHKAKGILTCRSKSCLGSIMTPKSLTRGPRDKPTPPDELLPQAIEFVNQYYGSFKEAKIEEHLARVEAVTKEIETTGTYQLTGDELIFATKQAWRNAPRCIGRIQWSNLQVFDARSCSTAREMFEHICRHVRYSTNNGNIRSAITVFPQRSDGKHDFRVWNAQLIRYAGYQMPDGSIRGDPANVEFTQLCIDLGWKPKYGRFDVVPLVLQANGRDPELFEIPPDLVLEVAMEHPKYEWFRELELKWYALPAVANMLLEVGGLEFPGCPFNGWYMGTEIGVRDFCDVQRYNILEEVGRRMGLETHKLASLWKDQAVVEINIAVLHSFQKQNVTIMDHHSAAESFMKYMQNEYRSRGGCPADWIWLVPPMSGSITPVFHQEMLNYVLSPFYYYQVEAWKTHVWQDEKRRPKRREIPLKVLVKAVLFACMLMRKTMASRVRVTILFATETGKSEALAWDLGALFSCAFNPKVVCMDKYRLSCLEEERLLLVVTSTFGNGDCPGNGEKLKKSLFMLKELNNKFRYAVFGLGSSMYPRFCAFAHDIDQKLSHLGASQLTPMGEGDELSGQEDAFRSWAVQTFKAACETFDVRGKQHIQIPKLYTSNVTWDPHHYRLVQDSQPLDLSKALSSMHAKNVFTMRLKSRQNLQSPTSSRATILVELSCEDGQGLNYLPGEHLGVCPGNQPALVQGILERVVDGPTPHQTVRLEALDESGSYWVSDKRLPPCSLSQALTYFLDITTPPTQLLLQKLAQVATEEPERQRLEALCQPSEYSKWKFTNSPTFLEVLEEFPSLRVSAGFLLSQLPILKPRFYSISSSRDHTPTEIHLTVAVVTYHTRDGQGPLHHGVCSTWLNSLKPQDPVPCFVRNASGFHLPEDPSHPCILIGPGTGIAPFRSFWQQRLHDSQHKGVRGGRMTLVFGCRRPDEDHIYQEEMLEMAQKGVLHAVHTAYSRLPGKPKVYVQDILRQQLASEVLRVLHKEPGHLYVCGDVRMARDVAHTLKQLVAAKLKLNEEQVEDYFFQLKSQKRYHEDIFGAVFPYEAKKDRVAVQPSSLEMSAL
# Method: The IC50 for inhibiting iNOS was determined for various compounds, as shown in FIG. 3 and FIG. 4 In these experiments, IC50 determinations for a compound was made by measuring iNOS activity in the presence of a compound at multiple concentrations. iNOS activity was measured by assays using the nitric oxide synthase screening kit (GE Healthcare Biosciences Corp., Piscataway, N.J.) following the manufacturer's protocols.
# [3] = molecular target: eNOS (Homo sapiens, UniProt P29474); test: eNOS selectivity, nitric oxide synthase screening kit (IC50); assay type: biochemical
# Method: (§1) All assays were performed using the nitric oxide synthase screening kit (GE Healthcare Biosciences Corp., Piscataway, N.J.) following the manufacturer's protocols.
# [4] = molecular target: nNOS (Homo sapiens, UniProt P29475); test: nNOS selectivity, nitric oxide synthase screening kit (IC50); assay type: biochemical
# Method: as §1
# [5] = molecular target: T2, iNOS; conditions: cited from earlier work
# [6] = molecular target: T1, iNOS; test: microPET imaging study in LPS-treated and control mice; assay type: in vivo; conditions: LPS intratracheally treated mouse vs control mouse
# Method: Two mice, one intratracheally treated with LPS, and a control mouse, were injected with [^18F]compound 14. […] This difference in tracer accumulation is consistent with the difference in accumulation of iNOS described between LPS-treated and control mice in the preceeding examples.
# [7] = In vivo stability (percent parent compound in plasma/blood) in rats; set-up: species or system Sprague-Dawley rats
# Method: Adult male Sprague-Dawley rats were injected with [^18F]compound 14, and at 5 and 30 minutes post injection, plasma samples were obtained. Supernatants from the plasma samples were analyzed by silica gel radio-TLC and reversed phase HPLC. After 30 minutes, the percent parent compound was only 20.2%. Additionally, within 5 minutes post injection, only 40.3% of the activity in the blood was [^18F]compound 14, which was confirmed by HPLC co-elution with non-radioactive compound 14. According to the HPLC analysis, the major metabolite, constituting 50% of the activity in blood at 5 minutes post injection, was very polar but was not free [^18F] fluoride. This observation is also consistent with the low bone uptake reported in biodistribution studies.
# [8] = Biodistribution in control vs. LPS treated mice; assay type: in vivo, C57BL/6 mice
# Method: This example describes the results of in vivo studies on the biodistribution of iNOS inhibitors. The biodistribution studies were performed in mature male C57BL/6 mice. One group of mice was treated with bacterial lipopolysaccharide (LPS) (10 mg/kg, administered intravenously) to induce iNOS expression, and a control group was left untreated.
# [9] = In vitro stability in heparinized rat whole blood; assay type: in vitro ADME, Sprague-Dawley rat; conditions: 37° C.
# Method: The in vitro stability of [^18F]compound 14 was tested by using heparinized blood from an adult male Sprague-Dawley rat. [^18F]compound 14 was relatively stable in the whole blood for 2 h at 37° C. At 1 h, approximately 80% of the activity recovered from lysed whole blood was observed as [^18F]compound 14, and at 2 h, approximately 75% of the recovered activity was still in the form of [^18F]compound 14.
# [10] = iNOS, read-out: IC50 of tested compounds
# [11] = measured against SEITU, L-NIL and 2-AP as standards, read-out: IC50 for iNOS
# [12] = read-out: Selectivity (IC50) iNOS
# [13] = iNOS, read-out: IC50 (standards for measuring IC50)
smiles,measurement,setting,value
Cc1ccnc(N)c1 [2-amino-4-methylpyridine],blocking of increased uptake of [18F]compound 14,[1]; blocker 10 mg/kg intravenously,failed to block
Cc1cc(N)nc(CC(C)C)c1 [Compound 11],melting point,,59 to 61 °C
same,IC50,[2]; [10],193 ± 38 nM
CC(C)=Cc1cc(C)cc(N)n1 [Compound 25],IC50,[2]; [10],685 ± 127 nM
Cc1cc(N)nc(CC(C)O)c1 (stereo not shown) [DZ(III)-77/Compound 14],IC50,[2]; [10],1780 ± 395 nM
"CC(=N)NCc1cccc(CN)c1 [1400 W, N-(3-(aminomethyl)benzyl)acetamidine]",tracer uptake in the lungs and blood blocked,"[1]; blocker 5 mg/kg i.v. immediately before [18F]compound 14, 1 h post injection",32%
Cc1cc(N)nc(CC(C)F)c1 (stereo not shown) [Compound 14],IC50,[3],1520 ± 300 nM
same,IC50,[4],493 ± 80.8 nM
same,IC50,[2]; [10],54.3 ± 8.9 nM
same,IC50,[2]; [11],< 190 nM
same,IC50,[2]; [12],54.3 ± 8.9 nM
"CCSC(=N)N [SEITU, S-ethylisothiourea, reference compound]",IC50,[2]; [13],30.5 ± 4.6 nM
same,Ki,[5]; reported value,32 nM
Cc1cc(N)nc(CC(C)CCF)c1 (stereo not shown) [DZ(IV)-93],IC50,[2]; [10],731 ± 87 nM
Cc1cc(N)nc(CCCF)c1 [Compound 52],IC50,[3],1430 ± 158 nM
same,IC50,[4],514 ± 83.3 nM
same,IC50,[2]; [10],57.6 ± 5.3 nM
same,IC50,[2]; [11],< 190 nM
same,IC50,[2]; [12],57.6 ± 5.3 nM
Cc1cc(N)nc(CC(C)[18F])c1 (stereo not shown) [[^18F]compound 14],tracer accumulation in lungs (microPET),[6],"accumulated in the lungs of the LPS-treated mouse, but not in the control mouse"
same,activity in the blood that was parent compound,[7]; 5 minutes post injection,40.3%
same,"major (very polar) metabolite, share of the activity in blood","[7]; 5 minutes post injection, HPLC",50%
same,percent parent compound,"[7]; plasma, 30 minutes post injection",20.2%
same,Biodistribution Blood,"[8]; Control mice, 5 min",2.37 ± 0.18 % ID/g
same,Biodistribution Bone,"[8]; Control mice, 5 min",1.52 ± 0.36 % ID/g
same,Biodistribution Brain,"[8]; Control mice, 5 min",1.60 ± 0.17 % ID/g
same,Biodistribution Heart,"[8]; Control mice, 5 min",1.50 ± 0.12 % ID/g
same,Biodistribution Kidney,"[8]; Control mice, 5 min",20.6 ± 2.4 % ID/g
same,Biodistribution Liver,"[8]; Control mice, 5 min",33.2 ± 3.3 % ID/g
same,Biodistribution Lung,"[8]; Control mice, 5 min",3.33 ± 0.28 % ID/g
same,Biodistribution Muscle,"[8]; Control mice, 5 min",1.25 ± 0.06 % ID/g
same,Biodistribution Blood,"[8]; Control mice, 30 min",1.22 ± 0.16 % ID/g
same,Biodistribution Bone,"[8]; Control mice, 30 min",2.26 ± 0.55 % ID/g
same,Biodistribution Brain,"[8]; Control mice, 30 min",0.28 ± 0.02 % ID/g
same,Biodistribution Heart,"[8]; Control mice, 30 min",0.60 ± 0.05 % ID/g
same,Biodistribution Kidney,"[8]; Control mice, 30 min",7.30 ± 0.66 % ID/g
same,Biodistribution Liver,"[8]; Control mice, 30 min",10.7 ± 0.3 % ID/g
same,Biodistribution Lung,"[8]; Control mice, 30 min",1.14 ± 0.13 % ID/g
same,Biodistribution Muscle,"[8]; Control mice, 30 min",0.71 ± 0.31 % ID/g
same,Biodistribution Blood,"[8]; Control mice, 1 h",0.31 ± 0.04 % ID/g
same,Biodistribution Bone,"[8]; Control mice, 1 h",2.57 ± 0.64 % ID/g
same,Biodistribution Brain,"[8]; Control mice, 1 h",0.11 ± 0.02 % ID/g
same,Biodistribution Heart,"[8]; Control mice, 1 h",0.19 ± 0.02 % ID/g
same,Biodistribution Kidney,"[8]; Control mice, 1 h",2.20 ± 0.25 % ID/g
same,Biodistribution Liver,"[8]; Control mice, 1 h",2.59 ± 0.49 % ID/g
same,Biodistribution Lung,"[8]; Control mice, 1 h",0.31 ± 0.06 % ID/g
same,Biodistribution Muscle,"[8]; Control mice, 1 h",0.27 ± 0.18 % ID/g
same,Biodistribution Blood,"[8]; Control mice, 2 h",0.27 ± 0.22 % ID/g
same,Biodistribution Bone,"[8]; Control mice, 2 h",5.59 ± 4.20 % ID/g
same,Biodistribution Brain,"[8]; Control mice, 2 h",0.07 ± 0.03 % ID/g
same,Biodistribution Heart,"[8]; Control mice, 2 h",0.08 ± 0.02 % ID/g
same,Biodistribution Kidney,"[8]; Control mice, 2 h",0.80 ± 0.27 % ID/g
same,Biodistribution Liver,"[8]; Control mice, 2 h",0.74 ± 0.23 % ID/g
same,Biodistribution Lung,"[8]; Control mice, 2 h",0.15 ± 0.03 % ID/g
same,Biodistribution Muscle,"[8]; Control mice, 2 h",0.34 ± 0.27 % ID/g
same,"tracer uptake, LPS-treated vs non-treated mice","[8]; LPS 10 mg/kg intravenously, Table 4 and FIG. 11",greater uptake
same,Biodistribution Blood,"[8]; LPS treated mice, 5 min",3.69 ± 0.38 % ID/g
same,Biodistribution Bone,"[8]; LPS treated mice, 5 min",1.59 ± 0.15 % ID/g
same,Biodistribution Brain,"[8]; LPS treated mice, 5 min",1.81 ± 0.09 % ID/g
same,Biodistribution Heart,"[8]; LPS treated mice, 5 min",2.03 ± 0.06 % ID/g
same,Biodistribution Kidney,"[8]; LPS treated mice, 5 min",26.7 ± 4.1 % ID/g
same,Biodistribution Liver,"[8]; LPS treated mice, 5 min",24.6 ± 3.1 % ID/g
same,Biodistribution Lung,"[8]; LPS treated mice, 5 min",4.32 ± 0.32 % ID/g
same,Biodistribution Muscle,"[8]; LPS treated mice, 5 min",1.64 ± 0.09 % ID/g
same,Biodistribution Blood,"[8]; LPS treated mice, 30 min",2.09 ± 0.35 % ID/g
same,Biodistribution Bone,"[8]; LPS treated mice, 30 min",3.70 ± 1.20 % ID/g
same,Biodistribution Brain,"[8]; LPS treated mice, 30 min",0.52 ± 0.15 % ID/g
same,Biodistribution Heart,"[8]; LPS treated mice, 30 min",1.02 ± 0.16 % ID/g
same,Biodistribution Kidney,"[8]; LPS treated mice, 30 min",10.9 ± 2.8 % ID/g
same,Biodistribution Liver,"[8]; LPS treated mice, 30 min",7.06 ± 0.28 % ID/g
same,Biodistribution Lung,"[8]; LPS treated mice, 30 min",1.84 ± 0.27 % ID/g
same,Biodistribution Muscle,"[8]; LPS treated mice, 30 min",1.06 ± 0.40 % ID/g
same,Biodistribution Blood,"[8]; LPS treated mice, 1 h",0.86 ± 0.09 % ID/g
same,Biodistribution Bone,"[8]; LPS treated mice, 1 h",4.30 ± 0.90 % ID/g
same,Biodistribution Brain,"[8]; LPS treated mice, 1 h",0.19 ± 0.03 % ID/g
same,Biodistribution Heart,"[8]; LPS treated mice, 1 h",0.41 ± 0.10 % ID/g
same,Biodistribution Kidney,"[8]; LPS treated mice, 1 h",3.95 ± 0.53 % ID/g
same,Biodistribution Liver,"[8]; LPS treated mice, 1 h",2.63 ± 0.52 % ID/g
same,Biodistribution Lung,"[8]; LPS treated mice, 1 h",0.73 ± 0.17 % ID/g
same,Biodistribution Muscle,"[8]; LPS treated mice, 1 h",0.78 ± 0.47 % ID/g
same,Biodistribution Blood,"[8]; LPS treated mice, 2 h",0.23 ± 0.05 % ID/g
same,Biodistribution Bone,"[8]; LPS treated mice, 2 h",3.77 ± 1.41 % ID/g
same,Biodistribution Brain,"[8]; LPS treated mice, 2 h",0.07 ± 0.03 % ID/g
same,Biodistribution Heart,"[8]; LPS treated mice, 2 h",0.12 ± 0.04 % ID/g
same,Biodistribution Kidney,"[8]; LPS treated mice, 2 h",0.91 ± 0.63 % ID/g
same,Biodistribution Liver,"[8]; LPS treated mice, 2 h",0.42 ± 0.15 % ID/g
same,Biodistribution Lung,"[8]; LPS treated mice, 2 h",0.18 ± 0.09 % ID/g
same,Biodistribution Muscle,"[8]; LPS treated mice, 2 h",0.23 ± 0.13 % ID/g
same,activity recovered from lysed whole blood observed as parent,[9]; 1 h,approximately 80%
same,recovered activity still in the form of parent,[9]; 2 h,approximately 75%
Cc1cc(N)nc(CCCCF)c1 [DZ(IV)-120],IC50,[2]; [10],170 ± 26.5 nM
"Nc1ncc2[nH]cnc2n1 [Compound 2-AP, 2-aminopurine, reference compound]",IC50,[2]; [13],108 ± 34.5 nM
same,IC50,[5]; reported value for standards,170 nM
C/C=C/c1cc(C)cc(N)n1 [DZ(III)-73],IC50,[2]; [10],282 ± 48.6 nM
